Consider 46 compounds from patent US12281114B2, “NK3 modulators and uses thereof” (Kallyope, Inc., priority 2023, dated 2025).

Molecules are shown by their SMILES.

The assay has as its target T1, human NK3 (Homo sapiens, UniProt P29371).
T1 sequence (P29371 1-465): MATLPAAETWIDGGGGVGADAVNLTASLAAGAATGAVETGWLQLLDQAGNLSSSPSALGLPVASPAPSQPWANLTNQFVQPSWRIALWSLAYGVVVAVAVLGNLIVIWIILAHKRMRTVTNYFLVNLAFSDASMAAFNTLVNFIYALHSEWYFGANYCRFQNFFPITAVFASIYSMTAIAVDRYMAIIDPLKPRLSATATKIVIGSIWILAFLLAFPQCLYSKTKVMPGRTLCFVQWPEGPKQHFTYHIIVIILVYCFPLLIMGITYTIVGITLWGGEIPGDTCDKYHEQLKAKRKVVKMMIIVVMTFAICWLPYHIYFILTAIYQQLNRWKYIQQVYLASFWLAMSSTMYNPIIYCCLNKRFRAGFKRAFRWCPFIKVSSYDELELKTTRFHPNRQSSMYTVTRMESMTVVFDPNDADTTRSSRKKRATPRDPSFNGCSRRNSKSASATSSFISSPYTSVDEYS
As to the kind of experiment: FLIPR calcium assay in antagonist mode (NKB EC70 challenge). Format: cell-based. The settings on record: stable cell line expressing human recombinant NK3; antagonist mode vs EC70 of NKB agonist. As for the experimental part:
Stable Cell Lines: A human recombinant NK3 Tachykinin Receptor stable cell line was purchased from GenScript (Genscript, Cat. #M00201; GenBank Accession Number NM 001059). The cell line was cultured according to manufacturer instructions, using 100 μg/mL Hygromycin B (Invitrogen, Cat. #D2650) for selective pressure. Cells were then collected using 0.05% Trypsin-EDTA (GIBCO, Cat. #25300) and frozen in a freezing media containing 90% FBS (Gibco, Cat. #10099-141) and 10% DMSO (Sigma, Cat. #D2650) at a density of 30×10^6 cells/mL. This bank of assay-ready frozen cells was later used in FLIPR assays to evaluate the potency and efficacy of NK3 antagonist test compounds.
FLIPR Calcium Assay: The FLIPR assay, used to measure changes in intracellular calcium levels, was performed in a 384-well plate format using the FLIPR Calcium 6 assay kit (Molecular Devices, Cat. #R8190). Assay-ready frozen cells expressing human NK3 (Genscript, Cat. #M00201) were thawed, washed, trypsinized, counted using a ViCell, and plated in cell growth media without Hygromycin at a density of […] (40 μL/well).
Calculation of NKB EC70: An EC70 concentration of NKB needed to be determined for competition against test antagonists prior to the compound screen. NKB agonist (Phoenix Pharmaceuticals, Cat. #046-26) was diluted in DMSO at 1800 nM (6-fold the final concentration) and serially diluted to generate a 13-point dose response curve (3-fold serial dilution) using an ECHO. 20 μL of 1× stimulation buffer was added using the BRAVO. 10 μL of DMSO was added while on the FLIPR (described as the first addition), then the RFU signal was measured for 10 minutes. The NKB titration was added to the plate, then the RFU signal was measured for 10 minutes (described as the second addition) on the FLIPR. The EC70 concentration was determined by using a four-parameter fit on GraphPad Prism prior to performing the compound screen.
FLIPR Screen in Antagonist Mode: Test compounds were prepared at 60 μM (6-fold the final concentration) and spotted in 370 nL using the Janus and ECHO. 20 μL of assay buffer was added using the BRAVO. Calcium-sensitive dye was reconstituted in loading buffer (Molecular Devices, Cat. #R8190). Media was removed from the cell plate using a Bluecat Cell Washer, and 40 μL of dye was added to the cell plate using the Apricot. The plate was incubated for 2 hours at 37° C., 5% CO2, then transferred to the FLIPR instrument. 10 μL of compound was added on the FLIPR (described as the first addition), then the RFU signal was measured for 10 minutes. EC70 of NKB agonist was added to the entire plate (described as the second addition), and the RFU signal was measured for 10 minutes on the FLIPR. RFU (relative fluorescence units) signals for first baseline, first peak, second baseline, and second peak were measured using the FLIPR. RFU signal (second peak minus second baseline) for positive (Max, at 10 μM antagonist) and negative (Min, at 0 μM antagonist) controls were used to normalize data and generate values for % Activity. IC50 and efficacy values were determined using a standard curve fitting equation on Dotmatics.
`Cc1nn(C)cc1-c1ccccc1-c1nc2cc(C(=O)N3CC[C@@H](N4CCNCC4)C3)ccn2c1C` (single isomer, unassigned) [Compound 480]: the half-inhibitory concentration (IC50) is 20.7 nM. The value for `Cc1nn(C)cc1-c1ccccc1-c1nc2cc(C(=O)N3CC[C@H](N4CCNCC4)C3)ccn2c1C` (single isomer, unassigned) [Compound 481] was 16.1 nM; that for `Cc1c(-c2ccccc2-c2nc3cc(C(=O)N[C@@H]4CO[C@H]5[C@@H]4OC[C@H]5O)ccn3c2Cl)cnn1C` [Compound 142] was 6.6 nM. Next, `Cc1nn(C)cc1-c1ccccc1-c1nc2cc(C(=O)NC3CCNCC3)ccn2c1C` [Compound 264]: 10.7 nM; `Cc1nn(C)cc1-c1ccccc1-c1nc2cc(C(=O)N3CCNCC3)ccn2c1C` [Compound 271]: 20.3 nM. The value for `Cc1c(-c2ccccc2-c2nc3cc(C(=O)N[C@H]4C[C@@](C)(C(=O)O)C4)ccn3c2C)cnn1C` [Compound 295] was 131 nM; that for `Cc1nn(C)cc1-c1ccccc1-c1nc2cc(C(=O)N[C@H]3C[C@@](C)(C(=O)O)C3)ccn2c1C` [Compound 298] was 26.8 nM; that for `Cc1c(-c2ccccc2-c2nc3cc(C(=O)N[C@H]4C[C@](C)(C(=O)O)C4)ccn3c2C)cnn1C` [Compound 312] was 41.7 nM. Consider `Cc1nn(C)cc1-c1ccccc1-c1nc2cc(C(=O)N[C@H]3C[C@](C)(C(=O)O)C3)ccn2c1C` [Compound 317], for which the half-inhibitory concentration (IC50) was found to be 7.03 nM. As for `Cc1nn(C)cc1-c1ccccc1-c1nc2cc(C(=O)N[C@@H]3CO[C@H]4[C@@H]3OC[C@H]4O)ccn2c1C` [Compound 425], the IC50 is 3.16 nM. Take `Cc1nn(C)cc1-c1ccccc1-c1nc2cc(C(=O)NC34CC(O)(C3)C4)ccn2c1Cl` [Compound 430]: the IC50 amounted to 2.3 nM. As to `Cc1nn(C)cc1-c1ccccc1-c1nc2cc(C(=O)N[C@@H]3CO[C@H]4[C@@H]3OC[C@H]4O)ccn2c1C#N` [Compound 431], the IC50 came out at 4.03 nM. For the compound `Cc1nn(C)cc1-c1ccccc1-c1nc2cc(C(=O)N3C[C@@H]4C[C@H]3C(=O)N4)ccn2c1Cl` [Compound 434], the IC50 came to 1.47 nM. For `Cc1nn(C)cc1-c1ccccc1-c1nc2cc(C(=O)O)ccn2c1Cl` [Compound 436], the 50% inhibitory concentration (IC50) is 67.5 nM. `Cc1nn(C)cc1-c1ccccc1-c1nc2cc(C(=O)N3C[C@H](N)[C@@H](O)C3)ccn2c1Cl` [Compound 442]: the IC50 stood at 15.1 nM. `Cc1nn(C)cc1-c1ccccc1-c1nc2cc(C(=O)N3CCN(C4CCNC4)CC3)ccn2c1Cl` (stereo not shown) [Compound 443]: the IC50 came out at 11.3 nM. As to `Cc1nn(C)cc1-c1ccccc1-c1nc2cc(C(=O)N[C@H]3C[C@](C)(O)C3)ccn2c1Cl` [Compound 447], the IC50 is 3.19 nM. The value for `Cc1nn(C)cc1-c1ccccc1-c1nc2cc(C(=O)NCC(C)(C)O)ccn2c1Cl` [Compound 448] was 6.01 nM; that for `CC(=O)NCCNC(=O)c1ccn2c(Cl)c(-c3ccccc3-c3cn(C)nc3C)nc2c1` [Compound 451] was 7.13 nM; that for `Cc1nn(C)cc1-c1ccccc1-c1nc2cc(C(=O)N3CCc4c[nH]nc4C3)ccn2c1Cl` [Compound 452] was 2.79 nM. The value for `Cc1nn(C)cc1-c1ccccc1-c1nc2cc(C(=O)NC[C@@H]3CNCCO3)ccn2c1Cl` [Compound 455] was 1.74 nM; that for `Cc1nn(C)cc1-c1ccccc1-c1nc2cc(C(=O)NCCC(C)(C)O)ccn2c1Cl` [Compound 459] was 1.86 nM. Take `Cc1nn(C)cc1-c1ccccc1-c1nc2cc(C(=O)N[C@H]3C[C@@](C)(O)C3)ccn2c1Cl` [Compound 460]: the IC50 worked out at 2.55 nM. The value for `Cc1nn(C)cc1-c1ccccc1-c1nc2cc(C(=O)NC[C@H]3CNCCO3)ccn2c1Cl` [Compound 461] was 3.41 nM; that for `Cc1nn(C)cc1-c1cccc(F)c1-c1nc2cc(C(=O)N[C@@H]3CO[C@H]4[C@@H]3OC[C@H]4O)ccn2c1C#N` [Compound 464] was 2.9 nM; that for `Cc1nn(C)cc1-c1cccc(F)c1-c1nc2cc(C(=O)N3C[C@@H]4C[C@H]3C(=O)N4)ccn2c1C#N` [Compound 468] was 4.27 nM. On to `Cc1nn(C)cc1-c1cccc(F)c1-c1nc2cc(C(=O)N[C@@H]3CO[C@H]4[C@@H]3OC[C@H]4O)ccn2c1Cl` [Compound 470], for which the IC50 was found to be 1.41 nM. The value for `Cc1nn(C)cc1-c1ccccc1-c1nc2cc(C(=O)N[C@@H]3CO[C@H]4[C@@H]3OC[C@@H]4O)ccn2c1Cl` [Compound 473] was 2.26 nM; that for `Cc1n[nH]cc1-c1ccccc1-c1nc2cc(C(=O)N[C@@H]3CO[C@H]4[C@@H]3OC[C@H]4O)ccn2c1Cl` [Compound 475] was 5.74 nM. Regarding `CCn1cc(-c2ccccc2-c2nc3cc(C(=O)N[C@@H]4CO[C@H]5[C@@H]4OC[C@H]5O)ccn3c2Cl)c(C)n1` [Compound 476], the IC50 amounted to 3.31 nM. Next, `CCn1ncc(-c2ccccc2-c2nc3cc(C(=O)N[C@@H]4CO[C@H]5[C@@H]4OC[C@H]5O)ccn3c2Cl)c1C` [Compound 477]: 2.19 nM; `Cc1nn(C)cc1-c1ccccc1-c1nc2cc(C(=O)N3CCc4n[nH]nc4C3)ccn2c1Cl` [Compound 486]: 6.85 nM; `Cc1nn(C)cc1-c1cccc(F)c1-c1nc2cc(C(=O)N3C[C@@H]4C[C@H]3C(=O)N4)ccn2c1Cl` [Compound 487]: 2.21 nM. For the compound `Cc1nn(C)cc1-c1ccccc1-c1nc2cc(C(=O)NC[C@@H](C)N3CCNC3=O)ccn2c1Cl` [Compound 490], the IC50 came out at 3.4 nM. Next, `Cc1nn(C)cc1-c1ccccc1-c1nc2cc(C(=O)NCCS(N)(=O)=O)ccn2c1Cl` [Compound 614]: 2.65 nM; `Cc1nn(C)cc1-c1ccccc1-c1nc2cc(C(=O)NC34COC(CO)(C3)C4)ccn2c1Cl` [Compound 615]: 2.5 nM. Consider `Cc1nn(C)cc1-c1ccccc1-c1nc2cc(C(=O)NCC34CC(CO)(CO3)C4)ccn2c1Cl` [Compound 616], for which the IC50 is 1.45 nM.

On to `Cc1nn(C)cc1-c1ccccc1-c1nc2cc(C(=O)N[C@H]3CO[C@H]4[C@@H]3OC[C@@H]4N)ccn2c1Cl` [Compound 617], for which the IC50 was 3.18 nM. Turning to `Cc1nn(C)cc1-c1ccccc1-c1nc2cc(C(=O)N[C@@H]3C[C@H]3CO)ccn2c1Cl` [Compound 619], the IC50 stood at 1.24 nM.

Consider `Cc1nn(C)cc1-c1ccccc1-c1nc2cc(C(=O)NCC34CC(CO)(CCO3)C4)ccn2c1Cl` [Compound 624], for which the half-inhibitory concentration (IC50) stood at 0.59 nM. The value for `Cc1nn(C)cc1-c1ccccc1-c1nc2cc(C(=O)NC[C@H]3C[C@](C)(O)C3)ccn2c1Cl` [Compound 629] was 1.06 nM. The value for `Cc1nn(C)cc1-c1ccccc1-c1nc2cc(C(=O)NC[C@H]3C[C@@](C)(O)C3)ccn2c1Cl` [Compound 631] was 0.78 nM. `Cc1nn(C)cc1-c1ccccc1-c1nc2cc(C(=O)NC[C@]34C[C@](O)(C3)C4)ccn2c1Cl` [Compound 633]: the concentration for half-maximal inhibition (IC50) came out at 1.53 nM. The value for `Cc1nn(C)cc1-c1ccccc1-c1nc2cc(C(=O)NC[C@]34C[C@](CO)(C3)C4)ccn2c1Cl` [Compound 635] was 1.65 nM; that for `Cc1nn(C)cc1-c1ccccc1-c1nc2cc(C(=O)N3CC(=O)N[C@@H](CO)C3)ccn2c1Cl` [Compound 638] was 25.8 nM. Consider `Cc1nn(C)cc1-c1ccccc1-c1nc2cc(C(=O)N3CC(=O)N[C@H](CO)C3)ccn2c1Cl` [Compound 639], for which the 50% inhibitory concentration (IC50) came to 3.81 nM.

Broadly, the IC50 is the concentration needed to halve the response being measured.
